Marks after values point to notes of the source that are not given here.
Test: Measurement of LogP values by HPLC on reversed phase columns (EEC directive 79/831 Annex V.A8)
Format: physicochemical
Settings: not given
Procedure: The abbreviations and numerations of the substituent positions used in the context of the present invention and in the following Tables are explained in detail in the section Examples hereinafter. Also, the LogP values indicated in the following Tables are explained in detail in the section Examples hereinafter. In case LogP values for different diastereoisomers of a specific compound are […], said LogP values are […] by a “+”. […] Measurement of LogP values was performed according to EEC directive 79/831 Annex V.A8 by HPLC (High Performance Liquid Chromatography) on reversed phase columns with the following methods: […] Lambda-max-values were determined using UV-spectra from 200 nm to 400 nm and the peak values of the chromatographic signals

| Structure (SMILES) | LogP | LogP [a] | LogP [b] |
| --- | --- | --- | --- |
| COc1ccc(CNc2nsc(C(=O)N(c3ccc(F)cc3F)C3CC3)c2Cl)cc1 [I-921] | 4.02[a] |  |  |
| COc1ccc(CNc2nsc(C(=O)NC3CCC4CCCCC4C3)c2Cl)cc1 (centres unmarked) [I-1216] | 5.24[a] |  |  |
| Nc1nsc(C(=O)NCc2ncc(C(F)(F)F)cc2Cl)c1Cl [I-286] | 2.58[a] |  |  |
| Nc1nsc(C(=O)Nc2cc(F)cc(F)c2)c1Cl [I-866] | 2.54[a] |  |  |
| CCC(C)CNC(=S)c1snc(N)c1Cl (centres unmarked) [I-1022] | 2.87[a] |  |  |
| COc1ccc(CNC(=O)c2snc(N)c2C)cc1 [I-049] | 1.42[a] |  |  |
| Nc1nsc(C(=O)N2CCCc3cc(Cl)ccc32)c1Cl [II-026] |  | 2.66 | 2.60 |
| Nc1nsc(C(=O)N(c2ccc(F)cc2F)C2CC2)c1Cl [I-958] | 2.39[a] |  |  |
| COc1ccc(CNc2nsc(C(=O)N3CCCc4cc(C)ccc43)c2Cl)cc1 [II-099] |  | 4.24 | 4.15 |
| CCC(C)CNC(=O)c1cc(N)ns1 (centres unmarked) [I-984] | 1.44[a] |  |  |
| Nc1nsc(C(=O)N(Cc2cc(Cl)ccc2Br)C2CC2)c1Cl [I-365] | 3.29[a] |  |  |
| COc1ccc(CNC(=O)c2snc(N)c2C)cn1 [I-136] | 0.96[a] |  |  |
| COc1ccc(CNc2nsc(C(=O)NC(C)c3nccs3)c2Cl)cc1 (centres unmarked) [I-1317] | 2.82[a] |  |  |
| C[C@H](NC(=S)c1snc(N)c1Cl)C1CCCCC1 [I-418] | 3.85[a] |  |  |
| CCC(NC(=O)c1snc(NCc2ccc(OC)cc2)c1Cl)C1CCCCC1 (centres unmarked) [I-1170] | 4.83[b] |  |  |
| COc1ccc(CNc2nsc(C(=O)NC3CCC(C4CCCCC4)CC3)c2Cl)cc1 (centres unmarked) [I-1347] | 6.25[a] |  |  |
| CC1CCC(CNC(=O)c2snc(N)c2Cl)CC1 (centres unmarked) [I-738] | 2.75[a] |  |  |
| Cc1c(N)nsc1C(=O)NCc1cc(F)c(F)cc1F [I-588] | 1.64[a] |  |  |
| Nc1nsc(C(=O)N(Cc2cc(Cl)cc(C(F)(F)F)c2)C2CC2)c1Cl [I-216] | 3.53[a] |  |  |

| Structure (SMILES) | LogP | LogP [a] | LogP [b] |
| --- | --- | --- | --- |
| CC(c1ccccc1)N(C(=O)c1snc(N)c1Cl)C1CC1 (centres unmarked) [I-886] | 2.73[a] |  |  |
| Nc1nsc(C(=O)NCC2(F)CCCC2)c1Cl [I-826] | 1.81[a] |  |  |
| O=C(NC1CCCC2CCCCC21)c1snc(Cl)c1Cl (centres unmarked) [E-II-012] |  | 5.34^[a] |  |
| COc1ccc(CNc2nsc(C(=O)N[C@H](C)C3CCCCC3)c2Cl)cc1 [I-070] | 4.56[a] |  |  |
| Cc1cc(C)cc(CN(C(=O)c2snc(N)c2Cl)C2CC2)c1 [I-117] | 3.15[a] |  |  |
| CCc1cccc(C)c1CN(C(=O)c1snc(N)c1Cl)C1CC1 [I-184] | 3.35[a] |  |  |
| CC(C)(C)OC(=O)c1snc(N)c1Cl [E-VII-003] |  | 2.66^[a] |  |
| Cc1c(N)nsc1C(=O)NCc1ccc(C(F)F)cc1 [I-156] | 1.66[a] |  |  |
| CS(Cc1ccccc1Cl)=Nc1nsc(C(=O)NCC2CCCCC2)c1Cl (centres unmarked) [II-085] |  | 3.61^[a] |  |
| Nc1nsc(C(=O)NCC2CCCCC2)c1Br [I-539] | 2.51[a] |  |  |
| C[C@H](NC(=O)c1snc(N=CN(C)C)c1Cl)C1CCCCC1 [II-025] |  | 3.13^[a] |  |
| O=C(NCC1CCCCC1)c1snc(N=S2CCCC2)c1F [II-055] |  | 1.72^[a] |  |
| COc1ccc(CNc2nsc(C(=O)N(Cc3ccc(C)cc3C)C3CC3)c2Cl)cc1 [I-892] | 4.80[a] |  |  |
| CC(NC(=O)c1snc(N)c1Cl)c1ccccc1Cl (centres unmarked) [I-142] | 2.46[a] |  |  |
| Nc1nsc(C(=O)NCc2cc(Cl)cc(Cl)c2)c1Cl [I-027] | 2.63[a] |  |  |
| CC1CC(C)(C)c2cccc(NC(=O)c3snc(N)c3Cl)c21 (centres unmarked) [I-885] | 3.62[a] |  |  |
| COc1ccc(CNc2nsc(C(=O)N(CC3C(C)CCCC3(C)C)C3CC3)c2Cl)cc1 (centres unmarked) [I-859] | 6.09[a] |  |  |
| C#CCNc1nsc(C(=O)N[C@@H](C)C2CCCCC2)c1Cl [I-062] | 3.56[a] |  |  |

Second part, the compound after the results:

| LogP | LogP [a] | LogP [b] | Structure (SMILES) |
| --- | --- | --- | --- |
| 2.50[a] |  |  | Cc1ccc(C)c(CNC(=O)c2snc(N)c2Cl)c1 [I-326] |
| 2.72[a] |  |  | Cc1cc(F)ccc1CNC(=O)c1snc(NC(=O)C(F)(F)F)c1Cl [I-816] |
| 3.63[a] |  |  | O=C(NCc1ccccc1F)c1snc(Nc2ccccc2)c1Cl [I-067] |
|  | 4.69^[a] |  | O=C(NCCc1ccccc1)c1snc(N=C(c2ccccc2)c2ccccc2)c1Cl [II-095] |
| 5.22[a] |  |  | COc1ccc(CNc2nsc(C(=O)Nc3ccc(Cl)cc3Cl)c2Cl)cc1 [I-867] |
| 1.44[a] |  |  | COc1ccc(CNc2nsc(C(=O)NCCCn3ccnc3C)c2Cl)cc1 [I-1263] |
| 3.61[a] |  |  | COc1ccc(CNc2nsc(C(=O)NCc3cscc3C)c2Cl)cc1 [I-1201] |
| 4.92[a] |  |  | COc1ccc(CNc2nsc(C(=O)NCc3cc(C)ccc3C3(C)CC3)c2Cl)cc1 [I-391] |
|  | 4.49^[a] |  | O=C(O)c1snc(N(Cc2ccccc2)Cc2ccccc2)c1-c1ccc(F)cc1 [E-VIII-010] |
| 4.67[a] |  |  | O=C(NCc1ccccc1Cl)c1cc(N(Cc2ccccc2)Cc2ccccc2)ns1 [I-284] |
| 2.12[a] |  |  | N#Cc1ccc(CNC(=O)c2snc(NC(=O)C(F)(F)F)c2Cl)cc1 [I-812] |
| 2.39[a] |  |  | COc1ccc(CNc2nsc(C(=O)NCc3cncs3)c2Cl)cc1 [I-1323] |
| 2.70[a] |  |  | COc1ccc(CNc2nsc(C(=O)NCc3ncccc3OC)c2Cl)cc1 [I-1271] |
| 4.80[a] |  |  | COc1ccc(CNc2nsc(C(=O)NCc3cc(C)ccc3C(C)C)c2Cl)cc1 [I-392] |
| 4.08[a] |  |  | COc1ccc(CNc2nsc(C(=O)NCCc3ccc(Cl)cc3)c2Cl)cc1 [I-962] |
| 2.08[a] |  |  | Cc1ccc(F)cc1CNC(=O)c1snc(N)c1Cl [I-127] |

| LogP | LogP [a] | LogP [b] | Structure (SMILES) |
| --- | --- | --- | --- |
| 5.35[a] |  |  | CC(C)(NC(=O)c1snc(NCc2ccccc2)c1Cl)C1CCCCC1 [I-048] |
| 4.01[a] |  |  | COc1ccc(CNc2nsc(C(=O)NCc3ccc(Br)cc3)c2Cl)cc1 [I-366] |
| 3.15[a] |  |  | Cc1ccc(C(C)C)c(CNC(=O)c2snc(N)c2Cl)c1 [I-415] |
| 2.64[a] |  |  | O=C(NCc1ccc(F)cc1F)c1snc(NC(=O)C(F)(F)F)c1Cl [I-280] |
| 2.98[a] |  |  | COc1ccc(CNc2nsc(C(=O)NCc3cnc(Cl)cn3)c2Cl)cc1 [I-1309] |
| 3.46[a] |  |  | COc1ccc(CNC(=O)c2snc(NCc3ccc(OC)cc3)c2Cl)cc1 [I-102] |
| 4.15[a] |  |  | COc1ccc(CNc2nsc(C(=O)NCc3ccc(OC(F)(F)F)cc3)c2Cl)cc1 [I-1242] |
| 1.84[a] |  |  | Nc1nsc(C(=O)NCc2cccc(F)c2)c1Cl [I-026] |
| 3.69[a] |  |  | COc1ccc(CNc2nsc(C(=O)NCc3ccc(F)c(OC)c3F)c2Cl)cc1 [I-426] |
| 2.58[a] |  |  | COc1ccc(CNc2nsc(C(=O)NCc3cnn(CC(F)F)c3)c2Cl)cc1 [I-1315] |
|  | 1.64^[a] |  | O=C(NCc1ccc(F)cc1F)c1snc(N=S2CCCC2)c1Cl [II-042] |
| 1.70[a] |  |  | CC(=O)Nc1nsc(C(=O)NCc2ccccc2F)c1Cl [I-100] |
| 3.76[a] |  |  | COc1ccc(CNc2nsc(C(=O)NCc3ccc(Cl)c(OC)c3)c2Cl)cc1 [I-390] |
| 2.56[a] |  |  | COc1ccc(CNc2nsc(C(=O)NCc3ccnc(OC)n3)c2Cl)cc1 [I-1316] |
| 5.68[a] |  |  | O=C(NCCc1ccccc1)c1snc(N(Cc2ccccc2)Cc2ccccc2)c1-c1ccc(F)cc1 [I-983] |

Same assay, conditions: HPLC LC-UV, acidic range, 0.1% formic acid in water and acetonitrile as eluent

| Structure (SMILES) | chromatographic logP |
| --- | --- |
| CCOC(=O)c1snc(N(Cc2ccccc2)Cc2ccccc2)c1C1CC1 [E-VII-024, ethyl 4-cyclopropyl-3-(dibenzylamino)isothiazole-5-carboxylate] | 5.91 |
